# Experimental data taken from patent US9107865B2, “Methods for producing oocysts” (Zoetis Services LLC, priority 2001, dated 2015).
# Where two headings read alike, the source gives them in different places.
# How the values were obtained:
# Scopulariopsis brumptii = assay: Fungistatic or fungicidal properties of reagents (TSB flasks, then MEA plates); type: cell-based; settings: for Growth on MEA plates (Day 14): 1 mL of flask plated on day 28 onto MEA plate, 14 days; for Growth on MEA plates (Day 14) / Growth in TSB Flasks (Day 28): room temperature; for Growth in TSB Flasks (Day 28): TSB flasks inoculated with fungal stock, 28 days; for fungistatic / fungicidal assessment: flask and plate tests taken together; on Growth in TSB Flasks (Day 28): key: −: no growth was observed; +: growth was observed; on Growth on MEA plates (Day 14): key: −: no growth was observed; +: growth was observed
# Method: An experiment was conducted to assess the fungistatic or fungicidal properties of the reagents used in the collection and sporulation medium described in Example 3. Initial sterility tests were performed using trypticase soy broth (TSB). A fungal stock was created by suspending fungal scrapings from a Scopulariopsis brumptii stock culture into 25 mL PBS and filtering this material through a coarse Swinney filter (˜100 μm). Two hundred […] of this fungal stock was inoculated into three TSB flasks for treatments (Trt) 2-11.
# Treatments evaluated various of the components of the collection/sporulation/sanitization medium described in Example 3, either alone or in combination. Sodium propionate was also tested in addition to propionic acid. Treatments were evaluated at room temperature for 28 days; then, on day 28 of incubation, one mL of each replicate flask for all treatments was plated onto a malt extract agar (MEA) plate with chloramphenicol (50 μg/mL) and penicillin-G (100 U/mL) and incubated at room temperature for 14 days.
# [1] = test system: extraneous viable bacteria and fungi; assay: 9CFR 113.27 purity test after sanitization of oocysts; settings: sanitized E. maxima oocysts
# Method: (§1) An experiment was performed to investigate the utility of the sporulation medium described in Example 3 as a sanitization reagent. E. maxima oocysts were produced in broilers and purified using a density flotation technique. Oocysts were sporulated for 72 h using 10% citric acid, 0.25% propionic acid, 0.75% hydrogen peroxide, and 1 mL/L Antifoam A. After sporulation, the oocysts were centrifuged and resuspended in sterile-filtered sporulation medium (10% citric acid, 0.25% propionic acid, 0.75% hydrogen peroxide, 1 mL/L Antifoam A) and incubated overnight at room temperature with stirring. After sanitization, buffer exchange was accomplished via diafiltration using 200 mM potassium phosphate, pH 7, followed by PBS without preservatives. The bulk sample was stored in glass bottles approximately one-third full at 4° C. Subsamples of the final product were sent to a commercial testing laboratory for purity tests according to U.S. Department of Agriculture (USDA) guidelines.
# (§2) Two experimental batches of E. maxima oocysts were prepared (Run A and Run B). Each batch was purified using sieving and flotation procedures. Each batch was then split and two methods of sanitization were tested (sodium hypochlorite and hydrogen peroxide with citric acid and propionic acid). Samples from each test were subjected to several purity tests including 9CFR tests and two PCR methods for virus detection.
# mycoplasma = assay: 9CFR 113.28 purity test after sanitization of oocysts; settings: sanitized E. maxima oocysts
# Method: as §1, §2
# salmonella = assay: 9CFR 113.30 purity test after sanitization of oocysts; settings: sanitized E. maxima oocysts
# Method: as §1, §2
# avian lymphoid leukosis = settings: sanitized E. maxima oocysts
# Method: E. maxima oocysts were produced in broilers and purified using a density flotation technique. […] After sanitization, buffer exchange was accomplished via diafiltration using 200 mM potassium phosphate, pH 7, followed by PBS without preservatives. The bulk sample was stored in glass bottles approximately one-third full at 4° C. Subsamples of the final product were sent to a commercial testing laboratory for purity tests according to U.S. Department of Agriculture (USDA) guidelines.
# hemagglutinating virus = assay: 9CFR 113.34 purity test after sanitization of oocysts; settings: sanitized E. maxima oocysts
# Method: as §1, §2
# [2] = test system: Extraneous agents in master seed; assay: 9CFR 113.55 purity test after sanitization of oocysts; settings: sanitized E. maxima oocysts
# Method: as §2
# [3] = test system: Chicken Infectious Anemia Virus; assay: PCR virus detection after sanitization of oocysts; settings: sanitized E. maxima oocysts
# Method: as §2
# [4] = test system: Reticuloendothelial Virus; assay: PCR virus detection after sanitization of oocysts; settings: sanitized E. maxima oocysts
# Method: as §2
smiles,measurement,setting,value
"OO [Trt 3, hydrogen peroxide]",Growth on MEA plates (Day 14),Scopulariopsis brumptii,−
same,Growth in TSB Flasks (Day 28),Scopulariopsis brumptii,−
CCC(=O)[O-].[Na+] [sodium propionate],fungistatic / fungicidal assessment,Scopulariopsis brumptii,did not inhibit fungal growth
"CCC(=O)[O-].[Na+] [Trt 10, sodium propionate]",Growth on MEA plates (Day 14),Scopulariopsis brumptii,+
same,Growth in TSB Flasks (Day 28),Scopulariopsis brumptii,+
"CCC(=O)O [Trt 4, propionic acid]",Growth on MEA plates (Day 14),Scopulariopsis brumptii,+
same,Growth in TSB Flasks (Day 28),Scopulariopsis brumptii,−
same,fungistatic / fungicidal assessment,Scopulariopsis brumptii,fungistatic
"O=C(O)CC(O)(CC(=O)O)C(=O)O [Trt 5, citric acid]",Growth on MEA plates (Day 14),Scopulariopsis brumptii,−
same,Growth in TSB Flasks (Day 28),Scopulariopsis brumptii,−
"[Na+].[O-]Cl [Hypochlorite, sodium hypochlorite]",9CFR 113.27 Detection of extraneous viable bacteria and fungi in live vaccine,"[1]; Example 6, Run A",Negative
same,9CFR 113.27 Detection of extraneous viable bacteria and fungi in live vaccine,"[1]; Example 6, Run B",Negative
same,9CFR 113.28 Detection of mycoplasma,"mycoplasma; Example 6, Run A",Negative
same,9CFR 113.28 Detection of mycoplasma,"mycoplasma; Example 6, Run B",Negative
same,9CFR 113.30 Detection of salmonella,"salmonella; Example 6, Run A",Negative
same,9CFR 113.30 Detection of salmonella,"salmonella; Example 6, Run B",Negative
same,9CFR 113.31 Detection of avian lymphoid leucosis,"avian lymphoid leukosis; Example 6, Run A",Negative
same,9CFR 113.31 Detection of avian lymphoid leucosis,"avian lymphoid leukosis; Example 6, Run B",Negative
same,9CFR 113.34 Detection of hemagglutinating virus,"hemagglutinating virus; Example 6, Run A",Negative
same,9CFR 113.34 Detection of hemagglutinating virus,"hemagglutinating virus; Example 6, Run B",Negative
same,9CFR 113.55 Extraneous agents in master seed,"[2]; Example 6, Run A",Negative
same,9CFR 113.55 Extraneous agents in master seed,"[2]; Example 6, Run B",Negative
same,Chicken Infectious Anemia Virus by PCR,"[3]; Example 6, Run A",Negative
same,Chicken Infectious Anemia Virus by PCR,"[3]; Example 6, Run B",Negative
same,Reticuloendothelial Virus by PCR,"[4]; Example 6, Run A",Negative
same,Reticuloendothelial Virus by PCR,"[4]; Example 6, Run B",Negative
